Marks after values point to notes of the source that are not given here.
Tested on: Collagen Induced Arthritis (CIA) in female Lewis rats
Assay: In vivo chronic study: Collagen Induced Arthritis (CIA)
Set-up: species or system rat
Settings: 2 × 30 mg/Kg
Text: Collagen Induced Arthritis (CIA) is a well characterized model of human rheumatoid arthritis (RA) that can be induced in susceptible animals following immunization with type II collagen (cII) in Freund's adjuvant. […] Pathophysiology of CIA consists of T cell component, as evidenced by increased infiltration of T-cells in joint synovium and also, by attenuation of CIA in T-cell deficient mice. CIA development involves B cell component too, as is evidenced by circulating cII antibody in disease animals and also, failure to develop the disease in xid mice/B cell deficient mice/CXCR5 null mice. […] See, Pine, “Inflammation and bone erosion are suppressed in models of rheumatoid arthritis following treatment with a novel Syk inhibitor”, Clin. Immunol., 2007, 124(3):244-57; Xiong cha, “Suppression of the onset and progression of collagen-induced arthritis in rats by QFGJS, a preparation from an anti-arthritic Chinese herbal formula”, J. Ethnopharmacology (2007) 110:39-48; and Stolina, “The evolving systemic and local biomarker milieu at different stages of disease progression in rat collagen induced arthritis”, Biomarkers (2008) 13(7-8):692-712, which are herein incorporated by reference.
Female Lewis rats (8 per group, 6-8 weeks old) were immunized on day 1 with type II collagen (Immunization grade Bovine type II; Chondrex; Cat #20021) emulsified with Complete Freund's Adjuvant (Sigma; Cat# F5881) at a final concentration of 1.2 mg/mL). For the initial immunization, the animals were injected at the base of the tail with 300 μg of the cII (0.25 mL/rat). A booster injection of the same type II collagen emulsified with Incomplete Freund's Adjuvant (Sigma, Cat #F5506) (0.25 mL/rat) was given to the animals on day 8 at the base of the tail (100 μg). The final cII concentration in the booster was […].
Animals with an arthritic score of ≥1 were grouped and dosing with test compound (30 mg/kg bid) or methotrexate (0.5 mg/kg) started between about day 12 to day 14, with daily dosing of their respective compounds continuing for 10 days.
Edema: Paw volumes are measured by Plethysmometry for the animals before induction of CIA (Basal readings) and on Day 1, 3, 6 and 9 of dosing period. Both hind paw volumes were measured and edema was calculated by subtracting from the basal mean.
Arthritic score: Animals were scored for the symptoms of arthritis every day starting from Day of onset of disease till the end of the study. Both the hind paws were scored and the total scores were averaged and compared with control. The scoring pattern was as follows:
The percent inhibition of Edema was calculated with respect to control by the formula: […]
The percent inhibition of Arthritic score was calculated with respect to control by the formula: […]
Means of different groups were compared with control using one way ANOVA followed by Dunnett's test. Significance is represented as follows.

Row | SMILES | Percent inhibition of Edema (Day 9 of dosing) | Percent inhibition of Arthritic score (Day 10 of dosing)
1 | O=C(O)C1CC12CCN(c1ccc(Nc3nc(-c4ccccc4)nc4cn[nH]c(=O)c34)cc1)CC2 (stereo not shown) [Example 19, 6-(4-(5-oxo-2-phenyl-5,6-dihydropyrimido[4,5-d]pyridazin-4-ylamino)phenyl)-6-azaspiro[2.5]octane-1-carboxylic acid] | 5** | 20*
2 | O=C(O)C1CC12CCN(c1ccc(Nc3nc(N4CCCCCC4)nc4cn[nH]c(=O)c34)cc1)CC2 (stereo not shown) [Example 62, 6-(4-((2-(azepan-1-yl)-5-oxo-5,6-dihydropyrimido[4,5-d]pyridazin-4-yl)amino)phenyl)-6-azaspiro[2.5]octane-1-carboxylic acid] | 69*** | 81***
3 | O=C(O)CC1CCN(c2ccc(Nc3nc(N4CCCCCC4)nc4cn[nH]c(=O)c34)cn2)CC1 [Example 108, 2-(1-(5-((2-(azepan-1-yl)-5-oxo-5,6-dihydropyrimido[4,5-d]pyridazin-4-yl)amino)pyridin-2-yl)piperidin-4-yl) acetic acid] | 42*** | 53***
4 | N#CCC1CCN(c2nc(Nc3ccc(N4CCC(O)CC4)cc3)c3c(=O)[nH]ncc3n2)CC1 [Example 189, 2-(1-(4-((4-(4-hydroxypiperidin-1-yl)phenyl)amino)-5-oxo-5,6-dihydropyrimido[4,5-d]pyridazin-2-yl)piperidin-4-yl)acetonitrile] | 90*** | 94***
5 | N#CCC1CCN(c2nc(Nc3ccc(N4CCN(CCO)CC4)cc3)c3c(=O)[nH]ncc3n2)CC1 [Example 191, 2-(1-(4-((4-(4-(2-hydroxyethyl)piperazin-1-yl)phenyl)amino)-5-oxo-5,6-dihydropyrimido[4,5-d]pyridazin-2-yl)piperidin-4-yl)acetonitrile] | 90*** | 100***
